The text below walks through data of patent publication US10906873B2, “Substituted cyclic amides as herbicides” (FMC Corporation, priority 2015, dated 2021).

For orientation: melting point means the temperature of the solid-liquid transition.

Data set [1] has as its system pigweed (Amaranthus retroflexus). The data set can be described thus: Test A preemergence, pigweed. As to conditions: 1000 g ai/ha, 0 to 100 scale. It is filed as in vivo. Put shortly:
(§1)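 Visual injury ratings, 0 = no effect to 100 = complete control, made versus untreated controls after about 10 d in greenhouse. Chemicals formulated in solvent mixture containing surfactant were sprayed on loam-sand soil after seeding (preemergence) or onto plants at one- to two-leaf stage, 2-10 cm (postemergence).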

In data set [2] the test system is velvetleaf (Abutilon theophrasti). The data set can be described thus: Test A postemergence, velvetleaf. As to conditions: 1000 g ai/ha, 0 to 100 scale. It is filed as in vivo. An excerpt: (§2) Seeds of plant species selected from barnyardgrass (Echinochloa crus-galli), crabgrass (large crabgrass, Digitaria sanguinalis), kochia (Kochia scoparia), ragweed (common ragweed, Ambrosia elatior), morningglory (Ipomoea spp.), velvetleaf (Abutilon theophrasti), ryegrass, It. (Italian ryegrass, Lolium multiflorum), foxtail, giant (giant foxtail, Setaria faberii), wheat (Triticum aestivum), corn (Zea mays), and pigweed (Amaranthus retroflexus), were planted into a blend of loam soil and sand and treated preemergence with a directed soil spray using test chemicals formulated in a non-phytotoxic solvent mixture which included a surfactant. At the same time, plants selected from these crop and weed species and also blackgrass (Alopecurus myosuroides), and galium (catchweed bedstraw, Galium aparine), were planted in pots containing the same blend of loam soil and sand and treated with postemergence applications of test chemicals formulated in the same manner. Plants ranged in height from 2 to 10 cm and were in the one- to two-leaf stage for the postemergence treatment. Treated plants and untreated controls were maintained in a greenhouse for approximately 10 d, after which time all treated plants were compared to untreated controls and visually evaluated for injury. Plant response ratings, summarized in Table A, are based on a 0 to 100 scale where 0 is no effect and 100 is complete control. A dash (-) response means no test result.

Data set [3] has as its system crabgrass (large crabgrass, Digitaria sanguinalis). Put plainly: Test A postemergence, crabgrass. It is filed as in vivo. As to conditions: 1000 g ai/ha, 0 to 100 scale.
From the text: as §2

Data set [4] relates to velvetleaf (Abutilon theophrasti). The data set can be described thus: Test A preemergence, velvetleaf. The conditions noted are these: 1000 g ai/ha, 0 to 100 scale. In kind it is in vivo.
From the text: as §2

In data set [5] the test system is corn (Zea mays). Put plainly: Test A preemergence, corn. It is filed as in vivo. As to conditions: 1000 g ai/ha, 0 to 100 scale.
From the text: as §2

In data set [6] the test system is crabgrass (large crabgrass, Digitaria sanguinalis). The data set can be described thus: Test A preemergence, crabgrass. It is filed as in vivo. The conditions noted are these: 1000 g ai/ha, 0 to 100 scale.
From the text: as §2

Data set [7] deals with wheat (Triticum aestivum). Put plainly: Test A postemergence, wheat. It is filed as in vivo. The conditions noted are these: 1000 g ai/ha, 0 to 100 scale. The method in brief: as §1
The test system of data set [8] is pigweed (Amaranthus retroflexus). Put plainly: Test A postemergence, pigweed. In kind it is in vivo. As to conditions: 1000 g ai/ha, 0 to 100 scale. Put shortly: as §1
Data set [9] has as its system morningglory (Ipomoea spp.). Put plainly: Test A preemergence, morningglory. In kind it is in vivo. As to conditions: 1000 g ai/ha, 0 to 100 scale.
From the text: as §2

For data set [10], the system named is morningglory (Ipomoea spp.). Put plainly: Test A postemergence, morningglory. In kind it is in vivo. As to conditions: 1000 g ai/ha, 0 to 100 scale.
From the text: as §2

Data set [11] concerns sedge, umbrella (small-flower umbrella sedge, Cyperus difformis). The data set can be described thus: Test B flooded paddy test, sedge, umbrella. It is filed as in vivo. As to conditions: Flood, scale of 0 to 100 where 0 is no effect and 100 is complete control, 13 to 15 d. The method in brief:
(§3)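 Ratings use a 0-100 visual scale, where 100 is complete control, and compare treated plants with controls after 13 to 15 d of greenhouse growth. Compound went straight into paddy water kept 3 cm over the soil surface, applied to seedlings at the 2-leaf stage.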

Data set [12] concerns barnyardgrass (Echinochloa crus-galli). The data set can be described thus: Test A postemergence, barnyardgrass. In kind it is in vivo. As to conditions: 1000 g ai/ha, 0 to 100 scale (0 no effect, 100 complete control). The method in brief:
as §1

For data set [13], the system named is wheat (Triticum aestivum). The data set can be described thus: Test A preemergence, wheat. The conditions noted are these: 1000 g ai/ha, 0 to 100 scale. It is filed as in vivo.
From the text: as §2

Data set [14] relates to foxtail, giant (giant foxtail, Setaria faberii). The data set can be described thus: Test A postemergence, foxtail, giant. In kind it is in vivo. As to conditions: 1000 g ai/ha, 0 to 100 scale. Put shortly:
as §1

For data set [15], the system named is corn (Zea mays). The data set can be described thus: Test A postemergence, corn. It is filed as in vivo. The conditions noted are these: 1000 g ai/ha, 0 to 100 scale. Put shortly: as §1
The test system of data set [16] is foxtail, giant (giant foxtail, Setaria faberii). Put plainly: Test A preemergence, foxtail, giant. It is filed as in vivo. As to conditions: 1000 g ai/ha, 0 to 100 scale. Put shortly: as §1
Data set [17] relates to ducksalad (Heteranthera limosa). Put plainly: Test B flooded paddy test, ducksalad. The conditions noted are these: Flood, scale of 0 to 100 where 0 is no effect and 100 is complete control, 13 to 15 d. In kind it is in vivo. The method in brief:
as §3

For data set [18], the system named is barnyardgrass (Echinochloa crus-galli). The data set can be described thus: Test A preemergence, barnyardgrass. It is filed as in vivo. As to conditions: 1000 g ai/ha, 0 to 100 scale. The method in brief:
as §1

In data set [19] the test system is rice (Oryza sativa). Put plainly: Test B flooded paddy test, rice. It is filed as in vivo. The conditions noted are these: Flood, scale of 0 to 100 where 0 is no effect and 100 is complete control, 13 to 15 d. The method in brief:
as §3

Data set [20] concerns barnyardgrass (Echinochloa crus-galli). The data set can be described thus: Test B flooded paddy test, barnyardgrass. As to conditions: Flood, scale of 0 to 100 where 0 is no effect and 100 is complete control, 13 to 15 d. In kind it is in vivo. The method in brief:
as §3

Molecules are shown by their SMILES.

The molecule `O=C1NCC(Cc2cccc(Cl)c2)C1C(=O)Nc1cccc(F)c1F` (stereo not shown) [Compound 1, 4-[(3-chlorophenyl)methyl]-N-(2,3-difluorophenyl)-2-oxo-3-pyrrolidinecarboxamide] came in with a melting point of 132 to 134 °C. In addition, in data set [1], the “Plant response rating, Pigweed” value turned out to be 0. Also, the “Plant response rating, Velvetleaf” value in [2] stood at 10. Further, the “Plant response rating, Crabgrass” value in data set [3] is reported as 80. Also, the “Plant response rating, Velvetleaf” value in data set [4] was determined as 0. For the same molecule, in [5], the “Plant response rating, Corn” value came out at 0. For the same molecule, the “Plant response rating, Crabgrass” value in [6] is given as 90. Also, the “Plant response rating, Wheat” value in [7] is given as 0. In addition, the “Plant response rating, Pigweed” value in data set [8] was determined as 0. In addition, the “Plant response rating, Morningglory” value in data set [9] stood at 0. In addition, the “Plant response rating, Morningglory” value in data set [10] came to 0. Moreover, the “Plant response rating, Sedge, Umbrella” value in [11] (1000 g ai/ha) came to 0. For the same molecule, the “Plant response rating, Barnyardgrass” value in [12] was 80. Besides, in data set [13], the “Plant response rating, Wheat” value is 0. In addition, the “Plant response rating, Foxtail, Giant” value in [14] was found to be 80. In [15], the “Plant response rating, Corn” value was found to be 0. The “Plant response rating, Foxtail, Giant” value in data set [16] amounted to 90. In [17] (1000 g ai/ha), the “Plant response rating, Ducksalad” value amounted to 50. Further, the “Plant response rating, Barnyardgrass” value in data set [18] amounted to 70. The “Plant response rating, Rice” value in [19] (1000 g ai/ha) is recorded as 0. Also, the “Plant response rating, Barnyardgrass” value in data set [20] (1000 g ai/ha) was 0.
As to `O=C1NCC(Cc2cccc(Cl)c2)C1C(=O)Nc1ccccc1F` (stereo not shown) [Compound 2], the “Plant response rating, Pigweed” value in [1] and in [8] was 0 each time. Besides, the “Plant response rating, Velvetleaf” value in data set [2] and in [4] was 0 each time. In addition, the results for the “Plant response rating, Crabgrass” value in data set [3] and in [6] were 80 and 90, respectively. Further, the “Plant response rating, Corn” value in data set [5] and in data set [15] was 0 throughout. Moreover, the “Plant response rating, Wheat” value in data set [7] and in data set [13] was 0 throughout. Also, the “Plant response rating, Morningglory” value in data set [9] and in [10] was 0 each time. Moreover, the “Plant response rating, Sedge, Umbrella” value in data set [11] (1000 g ai/ha) was determined as 0. The “Plant response rating, Barnyardgrass” value in data set [12] is given as 30; in data set [18], 30; in [20] (1000 g ai/ha), 0. Besides, the “Plant response rating, Foxtail, Giant” value in [14] was 60; in data set [16], 80. In addition, the “Plant response rating, Ducksalad” value in [17] (1000 g ai/ha) is listed as 0. In addition, the “Plant response rating, Rice” value in [19] (1000 g ai/ha) came out at 0.
Regarding `O=C1NCC(Cc2ccc(F)cc2)C1C(=O)Nc1cccc(F)c1F` (stereo not shown) [Compound 13, N-(2,3-difluorophenyl)-4-[(4-fluorophenyl)methyl]-2-oxo-3-pyrrolidinecarboxamide], the “Plant response rating, Pigweed” value in data set [1] and in [8] was 0 throughout. The “Plant response rating, Velvetleaf” value in [2] and in data set [4] was 0 throughout. In addition, the “Plant response rating, Crabgrass” value in [3] and in data set [6] was 80 each time. Further, the “Plant response rating, Corn” value in data set [5] and in data set [15] was 0 throughout. Further, the “Plant response rating, Wheat” value in [7] and in data set [13] was 0 each time. Also, the “Plant response rating, Morningglory” value in data set [9] and in data set [10] was 0 throughout. In [11] (250 g ai/ha), the “Plant response rating, Sedge, Umbrella” value is 0. Further, the entries for the “Plant response rating, Barnyardgrass” value in data set [12], in [18] and in data set [20] (250 g ai/ha) were 80, 80 and 0, respectively. Further, the “Plant response rating, Foxtail, Giant” value in data set [14] and in data set [16] was 60 throughout. Moreover, the “Plant response rating, Ducksalad” value in data set [17] (250 g ai/ha) is listed as 0. Moreover, the “Plant response rating, Rice” value in data set [19] (250 g ai/ha) was determined as 0.
